Laboratory results reported in patent publication US20040126343A1, “Nail drug delivery” (priority 2002, published 2004).
Blank lines part the entries; values can stand above or below the molecule they belong to.

Experiments:
[1] = Penetration of radiolabeled model compounds into human nail plate, diffusion cell, twice daily topical dosing for 7 days; details: for Increase of radioactivity in the ventral surface of the nail plate, carrier formulation compared with saline control / Radioactive Content, Dorsal/intermediate center / Radioactive Content, Ventral/intermediate center: twice daily for 7 days; for Increase of radioactivity in the ventral surface of the nail plate, carrier formulation compared with saline control: p<0.05; for Radioactive Content, Dorsal/intermediate center / Radioactive Content, Ventral/intermediate center / Percent Applied Dose, Cotton supporting bed / Percent Applied Dose, Dorsal/intermediate center / Percent Applied Dose, Remainder of nail / Percent Applied Dose, Subtotal (nail) / Percent Applied Dose, Surface Washing / Percent Applied Dose, Total (mass balance) / Percent Applied Dose, Ventral/intermediate center: mean (SD) of five tests
Description: Nail plates were collected from adult human cadavers and stored in a closed container at 0° C. Before each experiment, nail samples were gently washed with normal saline to remove any contamination, then rehydrated by placing them for 3 h on a cloth wetted with normal saline.
The test formulation contains 45% DMSO, 11% glycerin, 11% ethanol, 11% propylene glycol and water, as discussed in Hewitt P G, et al., 1998, Pharm Res 15:988-992. Normal saline (ABBOTT Laboratories, North Chicago, Ill.) was the control. […] A 5 μL aliquot was removed from each vial and radioactivity was measured in a Packard Liquid Scintillation Counter (model 1500).
A 5 μL dosing aliquot of each of the six test solutions was applied to the surface of a nail plate with a microsyringe twice daily, approximately 8 h apart for 7 days. Starting the second day, each morning before dosing, the surface of the nail was washed with cotton tips in a cycle, as follows: a dry tip, then a tip wetted with 50% skin cleansing liquid Ivory soap, then a tip wetted with distilled water, then another tip wetted with distilled water, then a final dry tip. This simulated a daily bathing. The washing samples from each cycle from each nail were pooled and collected by breaking off the cotton tip into scintillation glass vials. An aliquot of 5.0 mL methanol was added into each vial to extract test material. The radioactivity of each sample was measured in a liquid scintillation counter.
A Teflon® one-chamber diffusion cell (AMIE Systems) was used to hold each nail. To approximate physiological conditions, a small cotton ball wetted with 0.1 mL normal saline was placed in the chamber to serve as a “nail bed” and provide moisture for the nail plate. On day 5, 0.1 mL normal saline was injected through the inlet into the chamber to keep the cotton ball wet. A 1.5×1.5 cm aluminum sheet (0.24 mm thickness) with a hole in the center (1.0 cm diameter) was centered and glued to the top (dorsal) surface of the nail as a “frame” for the seal. The aluminum sheet frame flattens the curved nail and extends the surface area of the nail plate to fit the size of the top cover, so that potential leaking is prevented. The nail plate was placed on a ledge inside the receptor (1.0 cm in diameter and 0.5 cm high), sheet side up. The ventral (inner) surface of the nail was placed face down and rested on the wet cotton ball. Hydration of the nail plate and the supporting cotton bed was measured with a relative humidity/temperature meter (Corneometer CM 820; Courage & Khazaka, Cologne, Germany). Hydration was expressed digitally in arbitrary units (AU).
The rim of the cell base was covered with silicon gel and the top cover was set into the gel to prevent leaking. The metal holder was then tightly screwed into place.
The cells were placed on a platform in a large glass holding tank filled with saturated sodium phosphate solution. A digital relative humidity/temperature meter was used for monitoring room temperature, the chamber temperature, and humidity. The holding tank was then covered, thereby maintaining the cells at a constant humidity of 40%.
The sampling instrument consisted of a drill (Dremel™ model 2850; Dremel Inc., Racine, Wis.), a drill press (Dremel™), an adjustable stage (Fisher, Pittsburgh, Pa.) with an adjustable holder, and a high-speed cutter ( 5/16 inch or 7.9 mm in diameter).
After completion of the incubation phase, the nail plate was removed from the diffusion cell. The aluminum sheet frame was peeled off and placed in a glass scintillation vial. The nail plate was transferred to a clean Teflon® diffusion cell for processing. The nail plate was inverted so that the ventral (nail bed) surface faced up and the dorsal (outer) dosed surface faced down. A top cover was tightly screwed into place. The cell was placed in the middle of the holds on the adjustable stage.

[2] = cited from earlier work
[3] = cited from earlier work; remark: listed apart in the source
[4] = Test Carrier Formulation (45% DMSO)

Increase of radioactivity in the ventral surface of the nail plate, carrier formulation compared with saline control [1]: approximately 50%
Compound: CC(=O)N1CCN(c2ccc(OCC3COC(Cn4ccnc4)(c4ccc(Cl)cc4Cl)O3)cc2)CC1 (stereo not shown) [Ketoconazole, ketoconazole]

Radioactive Content, Dorsal/intermediate center ([1]; Saline Formulation): 0.4 (0.3) μg Eq./g Nail Sample
Radioactive Content, Ventral/intermediate center ([1]; Saline Formulation): 0.2 (0.09) μg Eq./g Nail Sample
Radioactive Content, Dorsal/intermediate center [1, 4]: 0.8 (0.5) μg Eq./g Nail Sample
Radioactive Content, Ventral/intermediate center [1, 4]: 0.35 (0.15) μg Eq./g Nail Sample
Increase of radioactivity in the ventral surface of the nail plate, carrier formulation compared with saline control [1]: approximately 50%
Compound: NC(N)=O [Urea, urea]
pKa [2]: 0.1

Compound: O=C(O)Cc1ccccc1Nc1c(Cl)cccc1Cl [diclofenac sodium]
Permeability of human skin with the percutaneous drug-enhancing formulation ([3]; carrier formulation): enhanced the permeability

Compound: O=C(O)Cc1ccccc1Nc1c(Cl)cccc1Cl [diclofenac]
Human skin penetration over the 48 h of study ([3]; multiple dosing, four doses/day for 2 days, in the carrier, compared with a saline control): continually increased

Percent Applied Dose, Cotton supporting bed ([1]; Saline Formulation): 3.66 (2.02) Percent Applied Dose
Percent Applied Dose, Dorsal/intermediate center ([1]; Saline Formulation): 47.10 (7.76) Percent Applied Dose
Percent Applied Dose, Remainder of nail ([1]; Saline Formulation): 14.20 (5.10) Percent Applied Dose
Percent Applied Dose, Subtotal (nail) ([1]; Saline Formulation): 63.83 (9.54) Percent Applied Dose
Percent Applied Dose, Surface Washing ([1]; Saline Formulation): 20.69 (5.97) Percent Applied Dose
Percent Applied Dose, Total (mass balance) ([1]; Saline Formulation): 88.18 (5.52) Percent Applied Dose
Percent Applied Dose, Ventral/intermediate center ([1]; Saline Formulation): 2.53 (0.51) Percent Applied Dose
Radioactive Content, Dorsal/intermediate center ([1]; Saline Formulation): 71.6 (10.6) μg Eq./g Nail Sample
Radioactive Content, Ventral/intermediate center ([1]; Saline Formulation): 7.0 (1.1) μg Eq./g Nail Sample
Radioactive Content, Dorsal/intermediate center [1, 4]: 16.3 (4.2) μg Eq./g Nail Sample
Radioactive Content, Ventral/intermediate center [1, 4]: 10.2 (0.6) μg Eq./g Nail Sample
Percent Applied Dose, Cotton supporting bed ([1]; Test Carrier Formulation): 2.23 (0.75) Percent Applied Dose
Percent Applied Dose, Dorsal/intermediate center ([1]; Test Carrier Formulation): 4.96 (2.13) Percent Applied Dose
Percent Applied Dose, Remainder of nail ([1]; Test Carrier Formulation): 3.87 (1.26) Percent Applied Dose
Percent Applied Dose, Subtotal (nail) ([1]; Test Carrier Formulation): 15.87 (3.76) Percent Applied Dose
Percent Applied Dose, Surface Washing ([1]; Test Carrier Formulation): 70.86 (2.62) Percent Applied Dose
Percent Applied Dose, Total (mass balance) ([1]; Test Carrier Formulation): 88.96 (2.29) Percent Applied Dose
Percent Applied Dose, Ventral/intermediate center ([1]; Test Carrier Formulation): 7.04 (2.67) Percent Applied Dose
Increase of radioactivity in the ventral surface of the nail plate, carrier formulation compared with saline control [1]: approximately 50%
Compound: O=C(O)c1ccccc1O [salicylic acid]
